The IC50 is the point on the concentration scale where inhibition reaches its midpoint. Low values mean higher potency, high ones lower potency.

The structures appear in SMILES notation.

Integrin alpha-IIb/beta-3, sequence (P05106 27-788 limits assumed): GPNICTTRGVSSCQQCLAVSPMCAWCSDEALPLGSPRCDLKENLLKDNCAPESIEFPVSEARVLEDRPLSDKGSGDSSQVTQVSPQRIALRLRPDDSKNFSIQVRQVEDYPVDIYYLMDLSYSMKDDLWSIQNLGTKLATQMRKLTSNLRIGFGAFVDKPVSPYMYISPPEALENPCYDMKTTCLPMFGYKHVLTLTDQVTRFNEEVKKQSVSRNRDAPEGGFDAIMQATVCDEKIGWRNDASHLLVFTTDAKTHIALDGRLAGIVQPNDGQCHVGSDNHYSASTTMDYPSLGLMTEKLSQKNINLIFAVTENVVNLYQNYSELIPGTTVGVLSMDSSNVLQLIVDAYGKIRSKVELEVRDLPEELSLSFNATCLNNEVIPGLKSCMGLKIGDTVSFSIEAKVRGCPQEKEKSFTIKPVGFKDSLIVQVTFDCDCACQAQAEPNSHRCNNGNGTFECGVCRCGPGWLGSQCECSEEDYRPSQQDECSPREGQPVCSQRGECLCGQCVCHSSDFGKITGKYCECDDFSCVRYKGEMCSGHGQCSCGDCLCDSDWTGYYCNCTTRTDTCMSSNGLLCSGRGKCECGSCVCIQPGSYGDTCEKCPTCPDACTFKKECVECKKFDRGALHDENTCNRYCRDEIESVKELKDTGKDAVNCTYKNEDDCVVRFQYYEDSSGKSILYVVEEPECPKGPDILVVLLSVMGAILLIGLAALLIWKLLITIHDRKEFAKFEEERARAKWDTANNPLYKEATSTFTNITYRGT
Integrin alpha-IIb/beta-3, sequence (P08514 32-887 limits assumed): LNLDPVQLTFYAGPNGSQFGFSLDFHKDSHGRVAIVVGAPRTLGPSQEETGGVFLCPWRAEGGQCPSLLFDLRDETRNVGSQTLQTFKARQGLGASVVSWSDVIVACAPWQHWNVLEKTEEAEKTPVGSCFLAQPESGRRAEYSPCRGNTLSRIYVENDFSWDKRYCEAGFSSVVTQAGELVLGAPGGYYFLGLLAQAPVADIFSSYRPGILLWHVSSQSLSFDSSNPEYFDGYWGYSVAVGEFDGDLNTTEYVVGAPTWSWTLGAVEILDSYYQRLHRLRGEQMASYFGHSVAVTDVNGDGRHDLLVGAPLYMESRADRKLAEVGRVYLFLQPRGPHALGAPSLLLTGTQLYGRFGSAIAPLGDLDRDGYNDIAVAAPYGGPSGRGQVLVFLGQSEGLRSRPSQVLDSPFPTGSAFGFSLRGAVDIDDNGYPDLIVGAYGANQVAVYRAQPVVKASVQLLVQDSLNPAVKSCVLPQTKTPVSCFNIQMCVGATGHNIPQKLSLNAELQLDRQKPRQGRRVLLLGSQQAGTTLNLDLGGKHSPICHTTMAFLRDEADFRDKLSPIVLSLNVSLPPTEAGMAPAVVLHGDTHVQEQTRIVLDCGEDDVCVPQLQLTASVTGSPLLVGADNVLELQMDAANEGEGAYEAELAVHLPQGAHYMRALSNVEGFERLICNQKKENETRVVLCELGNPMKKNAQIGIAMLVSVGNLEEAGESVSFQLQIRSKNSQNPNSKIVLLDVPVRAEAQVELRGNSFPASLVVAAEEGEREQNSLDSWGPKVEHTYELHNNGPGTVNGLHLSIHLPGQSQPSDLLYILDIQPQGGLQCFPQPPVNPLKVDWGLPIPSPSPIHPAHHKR
Integrin alpha-IIb/beta-3, sequence (P08514 891-1039 limits assumed): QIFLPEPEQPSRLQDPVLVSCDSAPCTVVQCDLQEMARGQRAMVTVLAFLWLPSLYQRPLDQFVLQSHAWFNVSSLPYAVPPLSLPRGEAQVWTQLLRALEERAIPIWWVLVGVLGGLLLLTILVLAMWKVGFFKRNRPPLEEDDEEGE

For this test, the target named is Integrin alpha-IIb/beta-3 (Homo sapiens, UniProt P08514+P05106). In words: ChEBML_90196. The text has this:
In vitro inhibition of ADP-mediated human gel filtered platelet aggregation.
`NCCCCCCOc1ccc(CCC(=O)O)cc1` registered an IC50 of over 100 µM.

`CCCCCC(=O)N[C@@H](Cc1ccc(OCCCCCCN)cc1)C(=O)O` yielded an IC50 of 3.8 µM. This lies in the single-digit micromolar range.

On to `NCCCCCCOc1ccc(C[C@H](NS(=O)(=O)Cc2ccccc2)C(=O)O)cc1`, for which 2 µM corresponded to half-maximal inhibition (IC50). Compared with the last molecule, the IC50 is about 1.9-fold lower.

For the molecule `O=C(N[C@@H](Cc1ccc(OCCCc2ccccc2)cc1)C(=O)O)OCc1ccccc1`, the half-inhibitory concentration (IC50) is over 1000 µM.

With `CC(C)(C)NCC(O)COc1ccc(C[C@H](NC(=O)OCc2ccccc2)C(=O)O)cc1` (some centres not stated), the IC50 turned out to be 27 µM.

The molecule `NCCCCCCCCOc1ccc(C[C@H](NC(=O)OCc2ccccc2)C(=O)O)cc1` [3-[4-(8-Amino-octyloxy)-phenyl]-2-benzyloxycarbonylamino-propionic acid] gave an IC50 of 40 µM. The IC50 values of the last two molecules are within 1.5-fold of each other.

As to `CC(C)(C)NCCCOc1ccc(C[C@H](NC(=O)OCc2ccccc2)C(=O)O)cc1` [(S)-2-Benzyloxycarbonylamino-3-[4-(3-tert-butylamino-propoxy)-phenyl]-propionic acid], the 50% inhibitory concentration (IC50) is 22 µM.

(Values after BindingDB's records for doi:10.1021/jm00102a020 (Merck Research Laboratories, 1993).)
